From patent publication US6214801A, “Imidazo[1,2-a]pyridine C-nucleosides as antiviral agents” (The Regents of the University of Michigan, priority 1999, dated 2001)
pIC50: −log10 of the molar value. Entries after “also recorded” stand apart in the source; their conditions may differ. Where two headings read alike, the source gives them in different places.

Columns and labels:
HSV-1 = HSV-1 ELISA assay; assay type: cell-based, herpes simplex virus type 1, KOS strain; settings: Human alphaherpesvirus 1; read-out: 50% Inhibitory Concentration IC50, Antiviral Activity, HSV-1 (ELISA assay)
Experimental: (§1) KB cells (available from the American Type Culture Collection (ATCC) 12301 Parklawn Drive, […], Md. 20852 (ATCC CCL 17)), an established human cell line derived from an epidermal oral carcinoma, were grown in minimal essential medium (MEM) (Sigma) with Hanks salts (MEM(H)) supplemented with 5% fetal calf serum. Human foreskin fibroblasts (HFF cells) (provided by the University of Michigan Hospital) and African green monkey kidney cells (BSC-1) (ATTC CCL 26) cells were grown in MEM with Earl salts (MEM(E)) supplemented with 10% fetal bovine serum. Cells were passaged according to conventional procedures and as described in Shipman, C., Jr. et al. (1976) Antimicrob. Agents Chemother. Vol. 9:120 and incorporated herein by reference. Briefly, cells were passaged at 1:2 to 1:10 dilutions according to conventional procedures by using 0.05% trypsin plus 0.02% EDTA in a HEPES buffered salt solution. HFF cells were passaged onlv at 1:2 dilutions.
(§2) A plaque purified isolate, Po, of the Towne strain of HCMV was used in all experiments and was a gift of Dr. Mark Stinski, University of Iowa. The KOS strain of HSV-1 was used and was provided by Dr. Sandra K. Weller, University of Connecticut. Stock preparations of HCMV and HSV-1 were prepared and titered as known to those of skill and the art and described in Turk, S. R. et al. (1987) Antimicrob. Agents Chemother. Vol. 31:544-550 and Shipman, C., Jr., et al. (1990) J. Virol. Methods Vol. 28:101-106, each incorporated herein by reference.
Briefly, high titer HSV-1 stocks were prepared as follows. Nearly confluent monolayer cultures of KB cells were grown in 32 oz. glass bottles containing MEM(E) buffered with 25 mM HEPES and supplemented with 5% fetal bovine serum and 0.127 giliter L-arginine (VGM, virus growth medium). The cultures were infected at a low input multiplicity to reduce the formation of defective virus. After cell cytopathology reached "three to four plus", the cells were harvested by vigorous shaking, and concentrated by centrifugation (800×g for 5 min.). The resulting virus pools were stored at -760C until retrieved for use in experiments.
HSV-1 was titered using monolayer cultures of BSC-1 cells. Cells were planted at 3×10^5 cells/well using 6-well cluster dishes. MEM(E) supplemented with 10% fetal bovine serum was employed as medium. After 22-24 h, cells were 90% confluent and were inoculated in triplicate using at least three ten-fold dilutions with 0.2 ml of the virus suspension to be assayed and incubated in a humidified 4% CO2 -[…] atmosphere for one hour to permit viral adsorption. Following virus adsorption, the cell sheet was overlayed with 5 ml of MEM(E) with 5% serum plus 0.5% methocel (4000 CPS) and incubated an additional two to three days. Cells were fixed and stained with 0.1% crystal violet in 20% methanol and macroscopic plaques enumerated.
(§3) HCMV plaque reduction experiments were performed with monolayer cultures of HFF cells by a procedure similar to that referenced above for titration of the viruses and described in Devivar, R. V. et al. (1994) J. Med. Chem. Vol. 37:2942-2949. Activity of compounds against HSV-1 was evaluated using an ELISA assay.
ELISA techniques according to standard procedures were also used to determine activity against HSV-1. Drug effects were calculated as a percentage of the reduction in virus titers in the presence of each drug concentration compared to the titer obtained in the absence of drug. Ganciclovir was used as a positive control in all experiments.

HIV-1 = HIV-1 replication, reverse transcriptase (RT) assay in CEM cells; assay type: cell-based, HIV-1 strain IIIB; settings: CEM cells, strain IIIB
Experimental: (§4) CEM cells and strain IIIB of HIV-1 were obtained through courtesy of Dr. Louis S. Kurcera, Boman Gray School of Medicine, Wake Forest University. CEM cells were grown in suspension culture and passaged through conventional procedures.
The activity of compounds against HIV-1 replication was determine by using reverse transcriptase (RT) as a marker for HIV-1. Strain IIIB of HIV-1 was grown in CEM cells maintained in suspension culture as detailed previously (see Kucera et al. AIDS Res. Human Retroviruses, 1993, Vol. 9, pp. 307-314). The assay measured the presence of HIV in supernatants of infected CEM cells by determining the amount of RT activity. Cells were grown, infected with HIV-1, and incubated in the presence of seven concentrations (one-half log10 dilutions) of the test compounds beginning at 1 or 100 μM concentration, depending on the compound to be assayed. Procedures and the RT assay were performed as detailed previously (see White et al., Antiviral Res. 1991, Vol. 16, pp. 257-266).

[1] = Growth cytotoxicity in KB cells (crystal violet staining); assay type: cell-based; settings: human, two population doubling times, read-out: 50% Inhibitory Concentration IC50, Cytotoxicity, Growth (KB cells)
Experimental: as §1
(§5) Two different methods were used to evaluate cytotoxicity of the compounds. First, cytotoxicity produced in stationary HFF cells was determined by microscopical examination of cells not affected by the virus used in the plaque assay. Second the effect of compounds on KB cells during two population doubling times was determined by crystal violet staining and spectrophotometric quantitation of dye eluted from stained cells. This method has been utilized for the analysis of ganciclovir and zidovudine (See Prichard, M. N. et al. Antiviral Res. (1991) Vol. 35:1060-1065).

HCMV [2] = test: HCMV plaque (focus) reduction assay in HFF cells; assay type: cell-based; settings: read-out: 50% Inhibitory Concentration IC50, Antiviral Activity, HCMV (plaque assay in HFF cells)
Experimental: as §1, §2
Stock HCMV was prepared by infecting HFF cells at a multiplicity of infection (m.o.i.) of less that 0.01 plaque-forming units (p.f.u.) per cell. Cell growth medium was changed every four days until cytopathology was evident in all cells (approximately 21 days). Supernatant fluids were retained as the virus stock. Four days later, the remaining cells were disrupted by three cycles of freeze-thawing and the cell plus medium held as an additional source of virus. Storage was in liquid nitrogen.
HCMV was titered in 24-well cluster dishes which were plated to contain 5×10^4 HFF cells/well, grown as described above. When the cells were 70 to 80% confluent, 0.2 ml of the virus suspension was added per well and adsorbed as described above. At least three ten-fold dilutions of each preparation were used. Following virus adsorption, the cell sheets were overlayed with 0.5% methocel (4000 CPS) in maintenance medium [MEM(E) with 1.1 g/liter NaHCO3, 100 units/ml penicillin G, 100 μg/ml streptomycin, and 5% fetal bovine serum]. The cultures were incubated in a humidified atmosphere of 4% CO2 -96% air. Viral plaques were visible 5 to 7 days after infection using at least 10-fold magnification. Cells were fixed and stained by a 10-minute exposure to a 0.1% solution of crystal violet in 20% methanol 7 to 12 days after infection. Microscopic foci were enumerated at 20-fold magnification using a Nikon Profile Projector.
as §3
The effect of compounds of the replication of HCMV was measured using a plaque (focus) reduction assay. For the former, HFF cells in 24-well culture dishes were infected with approximately 50 p.f.u. of HCMV per well using the procedures detailed above. Compounds dissolved in growth medium were added in four to six selected concentrations to duplicate wells following virus adsorption. Following incubation at 37 °C for 7 to 10 days, cell sheets were fixed, stained and microscopic plaques were enumerated as described above. Drug effects were calculated as a percentage of reduction in number of plaques in the presence of each drug concentration compared to the number observed in the absence of drug. […]

[3] = Growth cytotoxicity in CEM cells; assay type: cell-based; settings: human, read-out: 50% Inhibitory Concentration IC50, Cytotoxicity, Growth (CEM cells)
Experimental: as §4

in vitro = assay type: cell-based, human; settings: human, hff cells
Experimental: as §1, §5

HCMV [4] = settings: background; cited from earlier work
[5] = background; cited from earlier work

OC[C@@H]1C=C[C@H](c2c(Cl)nc3cc(Cl)c(Cl)cn23)O1 [Compound 76, 2,6,7-Trichloro-3-(2',3'-dideoxy-2',3'-didehydro-β-D-ribofuranosyl) imidazo[1,2-a] pyridine]
pIC50 (HSV-1): < 4.00 | 50% Inhibitory Concentration IC50, Antiviral Activity, HIV-1 (RT Assay) (HIV-1): 14/25 | CC50 [1]: > 100 µM | pIC50 (HCMV [2]; Human betaherpesvirus 5, HFF): 4.49 | CC50 [3]: > 100 µM | CC50 (in vitro): 100 µM

OC[C@H]1O[C@@H](n2c(Cl)nc3cc(Cl)c(Cl)cc32)[C@H](O)[C@@H]1O [TCRB, 2,5,6-trichloro-1-(2'-β-D-ribofuranosyl)benzimidazole]
antiviral activity of known compounds (in words) (HCMV [4]): useful against HCMV infections; also recorded: very potent activity against HCMV | pIC50 (HCMV [2]; Human betaherpesvirus 5, HFF cells, 7 to 10 days): 5.02 | cytotoxicity of known compounds (in words) [5]: low cellular toxicity at concentrations inhibiting viral growth | CC50 (in vitro): 15 µM

OC[C@H]1O[C@@H](n2cnc3cc(Cl)c(Cl)cc32)[C@H](O)[C@@H]1O [DRB, 5,6-dichloro-1-(β-D-ribofuranosyl) benzimidazole]
antiviral activity of known compounds (in words) (HCMV [4]): only marginal levels of activity | cytotoxicity of known compounds (in words) [5]: generally unacceptable levels of cytotoxicity
